Measurements reported in the OligoGym collection.
Oligonucleotides are written 5' to 3', each unit as a sugar letter and its base; * is a phosphorothioate linkage, no mark a phosphodiester; rarer units and linkages stand in square brackets, end groups in braces. Plain capitals give the bases only. d = 2'-deoxy (DNA); r = 2'-OH (RNA)

biological target: not listed separately; test: reporter assay of Huesken 2005; details: siRNA
Further: test concentration or dose not given here.

Row | Substance | normalised inhibition (eCFP-eYFP dual reporter) [%]
1 | sense rGrCrCrUrArCrGrGrGrArGrUrCrArArArGrGrUdTdT / antisense rArCrCrUrUrUrGrArCrUrCrCrCrGrUrArGrGrCdGdT | 91.5
2 | sense rGrCrCrUrUrCrArUrCrCrArCrCrUrUrCrCrCrUdTdT / antisense rArGrGrGrArArGrGrUrGrGrArUrGrArArGrGrCdAdG | 85.7
3 | sense rGrGrCrArGrArCrUrArCrArGrUrUrUrCrUrUrUdTdT / antisense rArArArGrArArArCrUrGrUrArGrUrCrUrGrCrCdAdG | 86
4 | sense rGrGrCrArGrCrGrGrGrArGrArGrArGrCrArArCdTdT / antisense rGrUrUrGrCrUrCrUrCrUrCrCrCrGrCrUrGrCrCdCdC | 61.9
5 | sense rGrGrCrArGrGrArGrArUrArGrCrCrCrArGrGrGdTdT / antisense rCrCrCrUrGrGrGrCrUrArUrCrUrCrCrUrGrCrCdAdC | 67.7
6 | sense rGrGrCrUrCrUrGrUrCrUrCrUrCrUrGrCrCrArCdTdT / antisense rGrUrGrGrCrArGrArGrArGrArCrArGrArGrCrCdAdC | 45.8
7 | sense rGrGrCrUrUrUrGrGrArGrCrCrCrUrUrCrUrGrCdTdT / antisense rGrCrArGrArArGrGrGrCrUrCrCrArArArGrCrCdTdA | 73.7
8 | sense rGrGrUrGrGrCrUrCrUrGrUrCrUrCrUrCrUrGrCdTdT / antisense rGrCrArGrArGrArGrArCrArGrArGrCrCrArCrCdGdG | 71.5
9 | sense rGrUrCrCrCrUrGrArGrGrArGrCrCrCrUrUrArGdTdT / antisense rCrUrArArGrGrGrCrUrCrCrUrCrArGrGrGrArCdGdG | 85.8
10 | sense rGrUrCrGrUrUrCrGrUrGrGrUrCrGrUrUrUrCrAdTdT / antisense rUrGrArArArCrGrArCrCrArCrGrArArCrGrArCdCdA | 39.3
11 | sense rUrArCrUrCrUrUrGrCrUrCrUrCrUrGrGrArGrUdTdT / antisense rArCrUrCrCrArGrArGrArGrCrArArGrArGrUrAdGdA | 57.9
12 | sense rUrArGrGrCrUrUrGrArGrGrGrArGrArGrUrUrGdTdT / antisense rCrArArCrUrCrUrCrCrCrUrCrArArGrCrCrUrAdAdA | 76.7
13 | sense rUrCrArUrUrGrUrUrCrCrUrGrUrGrArArCrUrGdTdT / antisense rCrArGrUrUrCrArCrArGrGrArArCrArArUrGrAdAdA | 66.7
14 | sense rUrCrCrCrCrArUrArGrGrCrUrUrUrGrGrArGrCdTdT / antisense rGrCrUrCrCrArArArGrCrCrUrArUrGrGrGrGrAdTdA | 35.8
15 | sense rUrCrCrCrCrUrGrCrCrUrGrUrCrArGrGrGrGrUdTdT / antisense rArCrCrCrCrUrGrArCrArGrGrCrArGrGrGrGrAdAdA | 42.2
16 | sense rUrCrCrCrUrGrCrUrUrCrUrGrArGrArCrUrUrCdTdT / antisense rGrArArGrUrCrUrCrArGrArArGrCrArGrGrGrAdAdG | 67.9
17 | sense rUrGrArArGrCrUrGrGrUrCrUrGrUrGrGrCrArGdTdT / antisense rCrUrGrCrCrArCrArGrArCrCrArGrCrUrUrCrAdGdA | 44.4
18 | sense rUrGrArGrArCrUrUrCrCrArUrCrUrCrUrArGrCdTdT / antisense rGrCrUrArGrArGrArUrGrGrArArGrUrCrUrCrAdGdA | 32.9
19 | sense rUrGrCrCrCrArUrUrGrUrGrUrUrCrCrCrUrUrGdTdT / antisense rCrArArGrGrGrArArCrArCrArArUrGrGrGrCrAdGdG | 95.4
20 | sense rUrGrCrCrUrCrCrCrUrUrGrArGrGrCrGrUrCrUdTdT / antisense rArGrArCrGrCrCrUrCrArArGrGrGrArGrGrCrAdAdT | 34.1
21 | sense rUrGrGrArUrUrUrArGrGrCrUrUrGrArGrGrGrAdTdT / antisense rUrCrCrCrUrCrArArGrCrCrUrArArArUrCrCrAdGdA | 81.4
22 | sense rUrGrGrCrUrCrUrGrUrCrUrCrUrCrUrGrCrCrAdTdT / antisense rUrGrGrCrArGrArGrArGrArCrArGrArGrCrCrAdCdC | 76.5
23 | sense rUrGrUrGrArCrCrUrCrCrArUrCrUrArCrUrCrUdTdT / antisense rArGrArGrUrArGrArUrGrGrArGrGrUrCrArCrAdGdG | 96.8
24 | sense rUrGrUrGrGrArCrUrCrUrGrArGrArArGrArArAdTdT / antisense rUrUrUrCrUrUrCrUrCrArGrArGrUrCrCrArCrAdAdG | 85.5
25 | sense rUrGrUrGrUrGrCrUrUrCrCrUrCrUrCrCrCrArUdTdT / antisense rArUrGrGrGrArGrArGrGrArArGrCrArCrArCrAdGdT | 104
26 | sense rUrGrUrUrCrCrUrUrGrUrGrGrArCrUrCrUrGrAdTdT / antisense rUrCrArGrArGrUrCrCrArCrArArGrGrArArCrAdTdC | 94.3
27 | sense rUrUrGrCrCrUrCrCrCrUrUrGrArGrGrCrGrUrCdTdT / antisense rGrArCrGrCrCrUrCrArArGrGrGrArGrGrCrArAdTdC | 37.3
28 | sense rUrUrGrCrUrCrUrCrUrGrGrArGrUrCrUrCrCrCdTdT / antisense rGrGrGrArGrArCrUrCrCrArGrArGrArGrCrArAdGdA | 58.4
29 | sense rUrUrUrArGrGrGrUrGrCrCrCrArCrUrUrArGrGdTdT / antisense rCrCrUrArArGrUrGrGrGrCrArCrCrCrUrArArAdAdG | 48.8
30 | sense rUrUrUrGrCrArGrUrUrGrGrArGrArUrUrCrArGdTdT / antisense rCrUrGrArArUrCrUrCrCrArArCrUrGrCrArArAdCdG | 48.6

biological target: UBE2L6; test: reporter assay of Huesken 2005; details: siRNA

Row | Substance | normalised inhibition (eCFP-eYFP dual reporter) [%]
31 | sense rArArArGrCrCrUrUrCrArArCrCrUrGrCrGrCrAdTdT / antisense rUrGrCrGrCrArGrGrUrUrGrArArGrGrCrUrUrUdCdA | 69.8
32 | sense rArArCrCrArArGrArUrCrUrArCrCrArCrCrCrCdTdT / antisense rGrGrGrGrUrGrGrUrArGrArUrCrUrUrGrGrUrUdGdT | 43.6
33 | sense rArArCrCrUrGrCrGrCrArUrCrArGrCrUrUrCrCdTdT / antisense rGrGrArArGrCrUrGrArUrGrCrGrCrArGrGrUrUdGdA | 51.6
34 | sense rArArCrUrGrGrArArGrCrCrUrUrGrCrArCrCrAdTdT / antisense rUrGrGrUrGrCrArArGrGrCrUrUrCrCrArGrUrUdCdT | 77.8
35 | sense rArArUrGrCrCrGrArArGrArGrUrUrCrArCrCrCdTdT / antisense rGrGrGrUrGrArArCrUrCrUrUrCrGrGrCrArUrUdCdT | 51.6
36 | sense rArCrArCrArGrArArUrCrCrGrGrArGrCrUrGrUdTdT / antisense rArCrArGrCrUrCrCrGrGrArUrUrCrUrGrUrGrUdCdA | 85.4
37 | sense rArCrCrArArGrArUrCrUrArCrCrArCrCrCrCrAdTdT / antisense rUrGrGrGrGrUrGrGrUrArGrArUrCrUrUrGrGrUdTdG | 90.8
38 | sense rArCrCrArCrCrCrCrArArCrGrUrGrGrArCrGrAdTdT / antisense rUrCrGrUrCrCrArCrGrUrUrGrGrGrGrUrGrGrUdAdG | 64.9
39 | sense rArCrCrCrGrArCrCrArArCrCrUrCrCrCrUrArCdTdT / antisense rGrUrArGrGrGrArGrGrUrUrGrGrUrCrGrGrGrUdAdG | 64
40 | sense rArCrCrUrCrGrCrUrGrArCrCrUrGrCrUrGrArCdTdT / antisense rGrUrCrArGrCrArGrGrUrCrArGrCrGrArGrGrUdCdC | 58.6
41 | sense rArCrCrUrGrCrGrCrArUrCrArGrCrUrUrCrCrCdTdT / antisense rGrGrGrArArGrCrUrGrArUrGrCrGrCrArGrGrUdTdG | 70.9
42 | sense rArCrCrUrGrCrGrGrArArCrCrUrGrUrCrCrArGdTdT / antisense rCrUrGrGrArCrArGrGrUrUrCrCrGrCrArGrGrUdAdT | 73.8
43 | sense rArCrUrUrGrCrCrArArGrUrCrCrUrGrGrArGrGdTdT / antisense rCrCrUrCrCrArGrGrArCrUrUrGrGrCrArArGrUdCdT | 31.8
44 | sense rArGrCrGrArUrGrArUrGrCrCrArArUrGrUrCrCdTdT / antisense rGrGrArCrArUrUrGrGrCrArUrCrArUrCrGrCrUdGdG | 87.3
45 | sense rArGrGrGrArGrCrCrCrCrUrGrCrGrGrArUrGrGdTdT / antisense rCrCrArUrCrCrGrCrArGrGrGrGrCrUrCrCrCrUdGdA | 60.1
46 | sense rArGrUrArUrCrCrGrUrUrCrArArGrCrCrUrCrCdTdT / antisense rGrGrArGrGrCrUrUrGrArArCrGrGrArUrArCrUdCdC | 53.7
47 | sense rArGrUrUrCrArCrCrCrUrCrCrGrArUrUrCrGrGdTdT / antisense rCrCrGrArArUrCrGrGrArGrGrGrUrGrArArCrUdCdT | 55.3
48 | sense rArUrCrArGrCrArGrUrGrArGrArArCrUrGrGrAdTdT / antisense rUrCrCrArGrUrUrCrUrCrArCrUrGrCrUrGrArUdGdA | 82.9
49 | sense rArUrCrArGrCrUrUrCrCrCrGrCrCrGrGrArGrUdTdT / antisense rArCrUrCrCrGrGrCrGrGrGrArArGrCrUrGrArUdGdC | 52.3
50 | sense rArUrGrGrArCrCrUrCrGrCrUrGrArCrCrUrGrCdTdT / antisense rGrCrArGrGrUrCrArGrCrGrArGrGrUrCrCrArUdCdC | 43.8
51 | sense rArUrUrCrArCrArArCrCrArArGrArUrCrUrArCdTdT / antisense rGrUrArGrArUrCrUrUrGrGrUrUrGrUrGrArArUdTdT | 51
52 | sense rCrArArArUrUrCrArCrArArCrCrArArGrArUrCdTdT / antisense rGrArUrCrUrUrGrGrUrUrGrUrGrArArUrUrUrGdAdT | 85.9
